Where two headings read alike, the source gives them in different places.
Target: T1, androgen receptor (AR) (Homo sapiens, UniProt P10275)
T1 sequence (P10275 1-920): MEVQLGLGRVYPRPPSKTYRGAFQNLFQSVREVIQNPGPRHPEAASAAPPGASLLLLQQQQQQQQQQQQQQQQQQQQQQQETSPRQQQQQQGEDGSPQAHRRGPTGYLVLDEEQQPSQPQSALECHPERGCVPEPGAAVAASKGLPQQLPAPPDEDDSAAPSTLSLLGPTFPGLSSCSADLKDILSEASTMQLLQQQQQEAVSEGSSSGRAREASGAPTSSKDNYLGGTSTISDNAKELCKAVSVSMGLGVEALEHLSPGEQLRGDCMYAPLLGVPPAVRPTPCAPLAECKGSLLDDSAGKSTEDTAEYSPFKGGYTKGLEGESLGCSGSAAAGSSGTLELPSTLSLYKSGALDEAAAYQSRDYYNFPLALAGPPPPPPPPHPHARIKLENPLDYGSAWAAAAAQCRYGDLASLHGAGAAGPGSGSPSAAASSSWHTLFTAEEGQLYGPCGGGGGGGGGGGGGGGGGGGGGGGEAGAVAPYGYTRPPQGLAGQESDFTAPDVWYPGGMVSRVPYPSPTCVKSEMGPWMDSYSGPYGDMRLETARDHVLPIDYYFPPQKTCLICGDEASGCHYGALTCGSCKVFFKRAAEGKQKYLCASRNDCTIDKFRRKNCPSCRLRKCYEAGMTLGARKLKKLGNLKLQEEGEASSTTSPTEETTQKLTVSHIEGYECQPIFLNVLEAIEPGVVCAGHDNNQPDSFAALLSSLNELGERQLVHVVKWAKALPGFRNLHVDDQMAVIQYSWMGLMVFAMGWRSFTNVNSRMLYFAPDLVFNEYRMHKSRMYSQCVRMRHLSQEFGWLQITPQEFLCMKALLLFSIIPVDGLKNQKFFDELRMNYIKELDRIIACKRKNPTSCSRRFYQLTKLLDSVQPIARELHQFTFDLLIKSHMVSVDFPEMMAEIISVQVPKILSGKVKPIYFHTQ
Test: Degradation of androgen receptor (AR) protein in VCaP cells by ELISA
Format: cell-based
Conditions: for Dmax: VCaP

[1] = AR degradation, VCaP cells, 16 h, ELISA, Table 3-1, read-out: DC50
[2] = AR degradation, VCaP cells, 16 h, ELISA, Table 3-1, read-out: Dmax (%)
[3] = AR degradation, VCaP cells, 16 h, ELISA, Table 3-2, read-out: DC50
[4] = AR degradation, VCaP cells, 16 h, ELISA, Table 3-2, read-out: Dmax (%)
[5] = AR degradation, VCaP cells, 16 h, ELISA, Table 3-1

Compound	DC50 [1]	Dmax [2]	also measured
CC1(C)[C@H](Oc2ccc(C#N)c(Cl)c2)C(C)(C)[C@H]1N1Cc2nc(C#CC3CCC(N4CC5(CN(c6ccc7c(c6)C(=O)N([C@@H]6CCC(=O)NC6=O)C7=O)C5)C4)CC3)ccc2C1=O (some centres unmarked) [Compound 350, 2-Chloro-4-((1r,3r)-3-(2-((4-(6-(2-(2,6-dioxopiperidin-3-yl)-1,3-dioxoisoindolin-5-yl)-2,6-diazaspiro[3.3]heptane-2-yl)cyclohexyl)ethynyl)-5-oxo-5,7-dihydro-6H-pyrrolo[3,4-b]pyridin-6-yl)-2,2,4,4-tetramethylcyclobutoxy) benzonitrile]			Dmax (%): ++ (key: ++++: >80%; +++: 80%-60%; ++: 60%-40%; +: <40%); DC50 (read-out: DC50): 0.1 to 0.3 µM
N#Cc1ccc(O[C@H]2CC[C@H](NC(=O)c3ccc(N4CCC(N5CC6(CCN(c7ccc8c(c7)C(=O)N(C7CCC(=O)NC7=O)C8=O)CC6)C5)CC4)nn3)CC2)cc1Cl (some centres unmarked) [Compound 78]	< 0.01 µM	> 80%	
CC1(C)[C@H](Oc2ccc(C#N)c(Cl)c2)C(C)(C)[C@H]1N1Cc2nc(C#C[C@H]3C[C@H](N4CCN(c5cnn(C6CCC(=O)NC6=O)c(=O)c5)CC4)C3)ccc2C1=O (some centres unmarked) [Compound 394]			DC50 [3]: 0.01 to 0.1 µM; Dmax [4]: 60 to 80%
Cc1cc(O[C@H]2C(C)(C)[C@H](N3Cc4nc(C#C[C@H]5CC[C@H](N6CCN(c7ccc8c(c7)C(=O)N(C7CCC(=O)NC7=O)C8=O)CC6)CC5)ccc4C3=O)C2(C)C)ccc1C#N (some centres unmarked) [Compound 402]			DC50: < 0.01 µM; Dmax: > 80%
N#Cc1ccc(O[C@H]2CC[C@H](NC(=O)c3cnc(N4CC5(CCN(C6CCN(c7cc8c(cc7F)C(=O)N(C7CCC(=O)NC7=O)C8=O)CC6)CC5)C4)nc3)CC2)cc1Cl (some centres unmarked) [Compound 273, N-((1r,4r)-4-(3-chloro-4-cyanophenoxy)cyclohexyl)-2-(7-(1-(2-(2,6-dioxopiperidin-3-yl)-6-fluoro-1,3-dioxoisoindolin-5-yl)piperidine-4-yl)-2,7-diazaspiro[3.5]nonan-2-yl)pyrimidine-5-carboxamide]	0.01 to 0.1 µM		Dmax: 60 to 80%
COc1cc(O[C@H]2C(C)(C)[C@H](N3Cc4nc(C#C[C@H]5C[C@H](N6CCN(c7cc8c(cc7F)C(=O)N(C7CCC(=O)NC7=O)C8=O)CC6)C5)ccc4C3=O)C2(C)C)ccc1C#N (some centres unmarked) [Compound 393]			DC50 [3]: 0.01 to 0.1 µM; Dmax [4]: > 80%
N#Cc1ccc(O[C@H]2CC[C@H](NC(=O)c3cnc(N4CCC(CN5CCC6(CC5)CN(c5ccc7c(c5)C(=O)N(C5CCC(=O)NC5=O)C7=O)C6)CC4)nn3)CC2)cc1Cl (some centres unmarked) [Compound 279, N-((1r,4r)-4-(3-chloro-4-cyanophenoxy)cyclohexyl)-3-(4-((2-(2-(2,6-dioxopiperidin-3-yl)-1,3-dioxoisoindolin-5-yl)-2,7-diazaspiro[3.5]nonane-7-yl)methyl)piperidin-1-yl)-1,2,4-triazine-6-formamide]			DC50: < 0.01 µM; Dmax: > 80%
N#Cc1ccc(O[C@H]2CC[C@H](NC(=O)c3ccc(N4CCC(CN5CCC6(CC5)CN(c5ccc7c(c5)C(=O)N(C5CCC(=O)NC5=O)C7=O)C6)CC4)nn3)CC2)cc1 (some centres unmarked) [Compound 131, N-((1r,4r)-4-(4-cyanophenoxy)cyclohexyl)-6-(4-((2-(2-(2,6-dioxopiperidin-3-yl)-1,3-dioxoisoindolin-5-yl)-2,7-diazaspiro[3.5]nonan-7-yl)methyl)piperidin-1-yl)pyridazine-3-carboxamide]			DC50: 0.01 to 0.1 µM; Dmax: 60 to 80%
CC1(C)C(Oc2ccc(C#N)c(Cl)c2)C(C)(C)C1N1Cc2nc(C#CC3CCC(N4CC5CN(c6ccc7c(c6)C(=O)N([C@@H]6CCC(=O)NC6=O)C7=O)CC5C4)CC3)ccc2C1=O (some centres unmarked) [Compound 349, 2-Chloro-4-((1r,3r)-3-(2-((4-(5-(2-(2,6-dioxopiperidin-3-yl)-1,3-dioxoisoindolin-5-yl)hexahydropyrrolo[3,4-c]pyrrol-2(1H)-yl)cyclohexyl)ethynyl)-5-oxo-5,7-dihydro-6H-pyrrolo[3,4-b]pyridin-6-yl)-2,2,4,4-tetramethylcyclobutoxy)benzonitrile]			Dmax (%) [5]: ++++ (>80%); DC50 (read-out: DC50): 0.01 to 0.1 µM
N#Cc1ccc(O[C@H]2CC[C@H](NC(=O)c3ccc(N4CCC(N5CC6(CCN(c7cc8c(cc7F)C(=O)N(C7CCC(=O)NC7=O)C8=O)CC6)C5)CC4)nc3)CC2)cc1Cl (some centres unmarked) [Compound 77, N-((1r,4r)-4-(3-chloro-4-cyanophenoxy)cyclohexyl)-6-(4-(7-(2-(2,6-dioxopiperidin-3-yl)-6-fluoro-1,3-dioxoisoindolin-5-yl)-2,7-diazaspiro[3.5]nonan-2-yl)piperidin-1-yl)nicotinamide]	< 0.01 µM	> 80%	
N#Cc1ccc(O[C@H]2CC[C@H](NC(=O)c3ccc(N4CCC(CN5CCC6(CC5)CN(c5ccc7c(c5)C(=O)N(C5CCC(=O)NC5=O)C7=O)C6)CC4)nn3)CC2)cc1C(F)(F)F (some centres unmarked) [Compound 151]			DC50: < 0.01 µM; Dmax: > 80%
CC1(C)[C@H](Oc2ccc(C#N)c(Cl)c2)C(C)(C)[C@H]1N1Cc2nc(C#CC3CC(N4CC5CN(c6ccc7c(c6)C(=O)N(C6CCC(=O)NC6=O)C7=O)CC5C4)C3)ccc2C1=O (some centres unmarked) [Compound 358, 2-chloro-4-((1r,3r)-3-(2-((3-(5-(2-(2,6-dioxopiperidin-3-yl)-1,3-dioxoisoindolin-5-yl)hexahydropyrrolo[3,4-c]pyrrol-2(1H)-yl)cyclobutyl)ethynyl)-5-oxo-5,7-dihydro-6H-pyrrolo[3,4-b]pyridin-6-yl)-2,2,4,4-tetramethylcyclobutoxy)benzonitrile]	0.01 to 0.1 µM	60 to 80%	

Second part, led by results:

DC50 [1]	Dmax [2]	Compound	also measured
0.01 to 0.1 µM	40 to 60%	N#Cc1ccc(O[C@H]2CC[C@H](NC(=O)c3cnc(N4CC5CC4CN5C[C@H]4[C@@H]5CN(c6cc7c(cc6F)C(=O)N(C6CCC(=O)NC6=O)C7=O)C[C@@H]54)cn3)CC2)cc1Cl (some centres unmarked) [Compound 238]	
0.1 to 0.3 µM	40 to 60%	N#Cc1ccc(O[C@H]2CC[C@H](NC(=O)c3ncnn3[C@H]3CC[C@H](CN4CCC5(CC4)CN(c4cc6c(cc4F)C(=O)N(C4CCC(=O)NC4=O)C6=O)C5)CC3)CC2)cc1Cl (some centres unmarked) [Compound 87]	
< 0.01 µM	> 80%	N#Cc1ccc(O[C@H]2CC[C@H](NC(=O)c3cnn([C@H]4CC[C@H](CN5CCC6(CC5)CN(c5ccc7c(c5)C(=O)N(C5CCC(=O)NC5=O)C7=O)C6)CC4)n3)CC2)cc1Cl (stereo partly drawn) [Compound 116, N-((1r,4R)-4-(3-chloro-4-cyanophenoxy)cyclohexyl)-2-((1r,4R)-4-((2-(2-(2,6-dioxopiperidin-3-yl)-1,3-dioxoisoindolin-5-yl)-2,7-diazaspiro[3.5]nonan-7-yl)methyl)cyclohexyl)-2H-1,2,3-triazole-4-carboxamide]	
0.01 to 0.1 µM	> 80%	CC1(C)[C@H](Oc2ccc(C#N)c(Cl)c2)C(C)(C)[C@H]1N1Cc2nc(C#C[C@H]3CC[C@H](N4CCN(c5ccc6c(c5)C(=O)N(C5CCC(=O)NC5=O)C6=O)CC4)CC3)cnc2C1=O (some centres unmarked) [Compound 381]	
0.01 to 0.1 µM	> 80%	N#Cc1ccc(O[C@H]2CC[C@H](NC(=O)c3cnc(N4CCC(N5CCC6(CC5)CN(c5ccc7c(c5)C(=O)N(C5CCC(=O)NC5=O)C7=O)C6)CC4)cn3)CC2)cc1Cl (some centres unmarked) [Compound 280, N-((1r,4r)-4-(3-chloro-4-cyanophenoxy)cyclohexyl)-5-(4-(2-(2-(2,6-dioxopiperidin-3-yl)-1,3-dioxoisoindolin-5-yl)-2,7-diazaspiro[3.5]nonan-7-yl)piperidin-1-yl)pyrazine-2-carboxamide]	
< 0.01 µM	> 80%	N#Cc1ccc(O[C@H]2CC[C@H](NC(=O)c3cnc(N4CCC(CN5CCC6(C5)CN(c5cc7c(cc5F)C(=O)N(C5CCC(=O)NC5=O)C7=O)C6)CC4)cn3)CC2)cc1Cl (some centres unmarked) [Compound 186, N-((1r,4r)-4-(3-chloro-4-cyanophenoxy)cyclohexyl)-5-(4-((2-(2-(2,6-dioxopiperidin-3-yl)-6-fluoro-1,3-dioxoisoindolin-5-yl)-2,6-diazaspiro[3.4]octan-6-yl)methyl)piperidin-1-yl)pyrazine-2-carboxamide]	
< 0.01 µM		N#Cc1ccc(OC2CCC(NC(=O)c3ncn(C4CCC(CN5CCC6(CC5)CN(c5ccc7c(c5)C(=O)N(C5CCC(=O)NC5=O)C7=O)C6)CC4)n3)CC2)cc1Cl [Compound 84, N-((1r,4R)-4-(3-chloro-4-cyanophenoxy)cyclohexyl)-1-(1r,4R)-4-((2-(2-(2,6-dioxopiperidin-3-yl)-1,3-dioxoisoindolin-5-yl)-2,7-diazaspiro[3.5]nonan-7-yl)methyl)cyclohexyl)-1H-1,2,4-triazole-3-carboxamide]	Dmax (%) [5]: ++++ (>80%)
